Assay results published in patent US6156700A, “3-(1,2-Benzisothiazol- and isoxazol-5-yl)-2,4(1H,3H)-pyrimidinedione or thione and 3-(1,2-benzisothiazol- and isoxazol-5-yl)-4(3H)-pyrimidinone or thione herbicidal agents” (American Cyanmid Company, priority 1998, dated 2000).

How the values were obtained:
[1] = system: Lambsquarters, Common, Chenopodium album; assay: Preemergence herbicidal evaluation, CHEAL; assay type: in vivo, L.; conditions: 0.2500 kg/ha
Procedure, shortened: (§1)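 Values are 0–9 visual ratings of stand, vigor, malformation, size, chlorosis and overall appearance relative to a control, scored 4 to 5 weeks after treatment. Test compound in aqueous acetone was sprayed onto soil right after seeding, at rates equivalent to about 0.0156–0.500 kg per hectare.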

Soybean, Glycine max [2] = assay: Preemergence herbicidal evaluation, GLXMA; assay type: in vivo, (L.) Merr.; conditions: 0.2500 kg/ha
Excerpt: (§2) Results of herbicide evaluation are expressed on a rating scale (0-9). The scale is based upon a visual observation of plant stand, vigor, malformation, size, chlorosis and overall plant appearance as compared with a control.
The preemergence herbicidal activity of the test compounds of the present invention is exemplified by the following tests in which the seeds of a variety of monocotyledonous and dicotyledonous plants are separately mixed with potting soil and planted on top of approximately one inch of soil in separate pint cups. After planting, the cups are sprayed with the selected aqueous acetone solution containing test compound in sufficient quantity to provide the equivalent of about 0.0156 to 0.500 kg per hectare of test compound per cup. The treated cups are then placed on greenhouse benches, watered and cared for in accordance with conventional greenhouse procedures. From four to five weeks after treatment, the tests are terminated and each cup is examined and rated according to the rating system provided in Example 185.
The compounds evaluated are reported by compound number given in Example 185.

[3] = system: Barnyardgrass, Echinochloa crus-galli; assay: Preemergence herbicidal evaluation, ECHCG; assay type: in vivo, (L.) Beau; conditions: 0.2500 kg/ha
Procedure, shortened: as §1

Soybean, Glycine max [4] = assay: Postemergence herbicidal evaluation, GLXMA; assay type: in vivo, (L.) Merr.; conditions: 0.2500 kg/ha
Protocol: In the tests, seedling plants are grown in jiffy flats for about two weeks. The test compounds are dispersed in 50/50 acetone/water mixtures containing 0.5% TWEEN®20, a polyoxyethylene sorbitan monolaurate surfactant of Atlas Chemical Industries, in sufficient quantities to provide the equivalent of about 0.0157 kg to 0.500 kg per hectare of active compound when applied to the plants through a spray nozzle operating at 40 psi for a predetermined time. After spraying, the plants are placed on greenhouse benches and are cared for in accordance with conventional greenhouse procedures. From four to five weeks after treatment, the seedling plants are examined and rated according to the rating system set forth below. Where more than one test is involved for a given compound, the data are averaged.
as §2

CYPIR Rice Flatsedge = assay: Postemergence weed control, flooded paddy (Table IV); assay type: in vivo, Cyperus iria; set-up: scale not given here
Procedure, shortened: (§3)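 Weeds 3 to 5 cm tall and rice seedlings at the 1.5 to 2.5 leaf stage were flooded, water held 1.5 to 3 cm above soil. Compounds in 50/50 v/v aqueous/acetone went into the flood water at about 0.0313 to 0.500 kg/ha. Injury was rated visually three to four weeks later.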

[5] = system: Velvetleaf, Abutilon theophrasti; assay: Postemergence herbicidal evaluation, ABUTH; assay type: in vivo, Medic.
Procedure, shortened: (§4)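 Greenhouse postemergence test. Seedlings about two weeks old sprayed (40 psi) with compound in 50/50 acetone/water, 0.5% TWEEN 20, at rates near 0.0157–0.500 kg/ha; rated 0–9 by eye at 4–5 weeks.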

[6] = system: Foxtail, Green, Setaria viridis; assay: Preemergence herbicidal evaluation, SETVI; assay type: in vivo, (L.) Beau; conditions: 0.2500 kg/ha
Procedure, shortened: as §1

[7] = system: Wheat, Winter, cv Riband, Triticum aestivum; assay: Preemergence herbicidal evaluation, TRZAWR; assay type: in vivo; conditions: 0.2500 kg/ha
Procedure, shortened: as §1

ORYSAT Rice, Tebonnet = assay: Tolerance of transplanted rice to post-transplant application (Table III); assay type: in vivo, Oryza sativa; set-up: scale not given here; conditions: crop tolerance
Protocol: The tolerance of transplanted rice to post-transplanted herbicide applications is determined as follows: two ten-day-old rice seedlings (cv. Tebonnet) are transplanted into silt loam soil in 32 oz. plastic containers with a diameter of 10.5 cm and no drainage holes. After transplanting, the containers are flooded and the water level is maintained at 1.5 to 3 cm above the soil surface. Three days after transplanting, the flooded soil surface of the containers is treated with the selected aqueous/acetone 50/50 v/v mixture containing the test compounds to provide the equivalent of about 0.0313 to 0.500 kg/ha of active ingredient. The treated containers are placed on greenhouse benches, watered such that the water level is maintained as stated above, and cared for in accordance with conventional greenhouse procedures. Three to four weeks after treatment, the test is terminated and each container is examined and herbicidal effect rated according to the rating system provided in Example 185. The compounds evaluated are reported by compound number given in Example 185.

[8] = system: ECHORC Watergrass (Calif.); assay: Postemergence weed control, flooded paddy (Table IV); assay type: in vivo, Echinochloa oryzoides; set-up: scale not given here
Procedure, shortened: as §3

[9] = system: Morningglory, Ivyleaf, Ipomoea hederacea; assay: Postemergence herbicidal evaluation, IPOHE; assay type: in vivo, (L.) Jacq.; conditions: 0.0630 kg/ha
Procedure, shortened: as §4

[10] = system: Soybean, Williams, Glycine max; assay: Postemergence herbicidal evaluation, GLXMAW; assay type: in vivo, (L.) Merr. cv Williams; conditions: 0.0630 kg/ha
Procedure, shortened: as §4

[11] = system: Rice, Tebonnet, Oryza sativa; assay: Postemergence herbicidal evaluation, ORYSAT; assay type: in vivo, (L.) Tebonnet
Procedure, shortened: as §4

CYPSE Flatsedge [12] = assay: Postemergence weed control, flooded paddy (Table IV); assay type: in vivo, Cyperus serotinus; set-up: scale not given here
Procedure, shortened: as §3

Galium, Galium aparine = assay: Preemergence herbicidal evaluation, GALAP; assay type: in vivo; conditions: 0.2500 kg/ha
Procedure, shortened: as §1

[13] = system: Lambsquarters, Common, Chenopodium album; assay: Postemergence herbicidal evaluation, CHEAL; assay type: in vivo, L.
Procedure, shortened: as §4

CYPSE Flatsedge [14] = assay: Preemergence weed control, flooded paddy (Table III); assay type: in vivo, Cyperus serotinus; set-up: scale not given here
Protocol: Preemergence herbicidal activity under flooded paddy conditions is determined as follows: plant seeds or propagating organs are planted in the top 0.5 cm of silt loam soil in 32 oz. plastic containers with a diameter of 10.5 cm and no drainage holes. Water is added to these containers and maintained at 1.5 to 3 cm above the soil surface for the duration of the experiment. The test compounds are applied as aqueous/acetone mixtures 50/50 v/v pipetted directly into the flood water to give the equivalent of about 0.0313 to 0.500 kg/ha of active ingredient. The treated containers are placed on greenhouse benches and cared for in accordance with conventional greenhouse procedures. Three to four weeks after treatment, the test is terminated and each container is examined and herbicidal effect rated according to the rating system provided in Example 185. The compounds evaluated are reported by compound number given in Example 185.

| SMILES | herbicide rating (0-9) [1] | herbicide rating (0-9) (Soybean, Glycine max [2]) | herbicide rating (0-9) [3] | herbicide rating (0-9) (Soybean, Glycine max [4]) | herbicidal effect rating (CYPIR Rice Flatsedge; 0.1250 kg/ha) | herbicidal effect rating (CYPIR Rice Flatsedge; 0.2500 kg/ha) | herbicidal effect rating (CYPIR Rice Flatsedge; 0.5000 kg/ha) | herbicide rating (0-9) ([5]; 0.2500 kg/ha) | herbicide rating (0-9) [6] | herbicide rating (0-9) [7] | herbicidal effect rating (ORYSAT Rice, Tebonnet; 0.0313 kg/ha) | herbicidal effect rating (ORYSAT Rice, Tebonnet; 0.0625 kg/ha) | herbicidal effect rating (ORYSAT Rice, Tebonnet; 0.1250 kg/ha) | herbicidal effect rating (ORYSAT Rice, Tebonnet; 0.2500 kg/ha) | herbicidal effect rating (ORYSAT Rice, Tebonnet; 0.5000 kg/ha) | herbicidal effect rating ([8]; 0.1250 kg/ha) | herbicidal effect rating ([8]; 0.2500 kg/ha) | herbicidal effect rating ([8]; 0.5000 kg/ha) | herbicide rating (0-9) ([11]; 0.2500 kg/ha) | herbicidal effect rating (CYPSE Flatsedge [12]; 0.1250 kg/ha) | also measured |
| --- | --- | --- | --- | --- | --- | --- | --- | --- | --- | --- | --- | --- | --- | --- | --- | --- | --- | --- | --- | --- | --- |
| COC(=O)C(C)Oc1ccc(C)cc1-c1nsc2ccc(-n3c(=O)cc(C(F)(F)F)n(C)c3=O)cc12 (stereo not shown) [Compound 3] | 9.0 | 4.0 | 8.3 | 7.5 | 9.0 | 9.0 | 9.0 | 9.0 | 9.0 | 6.3 | 2.0 | 2.0 | 3.0 | 4.0 | 4.0 | 0.0 | 2.0 | 4.0 | 9.0 | 0.0 | herbicide rating (0-9) ([5]; 0.0630 kg/ha): 9.0; herbicide rating (0-9) [9]: 9.0; herbicide rating (0-9) [10]: 7.0; herbicide rating (0-9) ([11]; 0.0630 kg/ha): 7.2; herbicidal effect rating (CYPSE Flatsedge [12]; 0.2500 kg/ha): 0.0; herbicidal effect rating (CYPSE Flatsedge [12]; 0.5000 kg/ha): 0.0; herbicide rating (0-9) (Galium, Galium aparine): 7.6; herbicide rating (0-9) ([13]; 0.0630 kg/ha): 9.0; herbicide rating (0-9) ([13]; 0.2500 kg/ha): 9.0; herbicidal effect rating (CYPSE Flatsedge [14]; 0.0313 kg/ha): 0.0; herbicidal effect rating (CYPSE Flatsedge [14]; 0.0625 kg/ha): 0.0; herbicidal effect rating (CYPSE Flatsedge [14]; 0.1250 kg/ha): 0.0; herbicidal effect rating (CYPSE Flatsedge [14]; 0.2500 kg/ha): 2.0; herbicidal effect rating (CYPSE Flatsedge [14]; 0.5000 kg/ha): 4.0 |
| Cn1c(C(F)(F)F)cc(=O)n(-c2ccc3snc(-c4ccccc4)c3c2)c1=O [Compound 4, 1-Methyl-3-(3-phenyl-1,2-benzisothiazol-5-yl)-6-(trifluoromethyl)-2,4(1H,3H)-pyrimidinedione] | 9.0 | 7.0 | 9.0 | 9.0 | 9.0 | 9.0 | 9.0 | 9.0 | 9.0 | 7.0 | 4.0 | 7.0 | 7.0 | 8.0 | 8.0 | 9.0 | 9.0 | 9.0 | 3.0 | 7.0 | herbicidal effect rating (CYPSE Flatsedge [12]; 0.2500 kg/ha): 7.0; herbicidal effect rating (CYPSE Flatsedge [12]; 0.5000 kg/ha): 9.0; herbicide rating (0-9) (Galium, Galium aparine): 9.0; herbicide rating (0-9) ([13]; 0.2500 kg/ha): 9.0; herbicidal effect rating (CYPSE Flatsedge [14]; 0.0625 kg/ha): 2.0; herbicidal effect rating (CYPSE Flatsedge [14]; 0.1250 kg/ha): 9.0; herbicidal effect rating (CYPSE Flatsedge [14]; 0.2500 kg/ha): 9.0; herbicidal effect rating (CYPSE Flatsedge [14]; 0.5000 kg/ha): 9.0 |
| CCc1ccc(-c2nsc3ccc(-n4c(=O)cc(C(F)(F)F)n(C)c4=O)cc23)cc1 [Compound 5, 3-[3-(p-Ethylphenyl)-1,2-benzisothiazol-5-yl]-1-methyl-6-(trifluoromethyl)-2,4 (1H,3H)-pyrimidinedione] | 9.0 | 4.0 | 9.0 | 7.0 | 9.0 | 9.0 | 9.0 | 9.0 | 9.0 | 4.0 | 2.0 | 3.0 | 4.0 | 5.0 | 7.0 | 6.0 | 9.0 | 9.0 | 3.0 | 0.0 | herbicidal effect rating (CYPSE Flatsedge [12]; 0.2500 kg/ha): 0.0; herbicidal effect rating (CYPSE Flatsedge [12]; 0.5000 kg/ha): 0.0; herbicide rating (0-9) (Galium, Galium aparine): 6.0; herbicide rating (0-9) ([13]; 0.2500 kg/ha): 9.0; herbicidal effect rating (CYPSE Flatsedge [14]; 0.0313 kg/ha): 0.0; herbicidal effect rating (CYPSE Flatsedge [14]; 0.0625 kg/ha): 2.0; herbicidal effect rating (CYPSE Flatsedge [14]; 0.1250 kg/ha): 6.0; herbicidal effect rating (CYPSE Flatsedge [14]; 0.2500 kg/ha): 8.0; herbicidal effect rating (CYPSE Flatsedge [14]; 0.5000 kg/ha): 7.0 |
